One compound from publication PMC8138732, “Comparative study of His- and Non-His-tagged CLIC proteins, reveals changes in their enzymatic activity” (Biochemistry and Biophysics Reports, 2021) can be followed below.

For one experiment, the target named is T1, non-His-tagged CLIC3 (Homo sapiens, UniProt O95833).
T1 construct: E. coli BL21(DE3); Ni-NTA and SEC; reduced soluble monomer
Description: HEDS assay coupled to glutathione reductase, NADPH consumption at […] nm. It is filed as biochemical. The following applies: 1 mM GSH fixed, 250 uM NADPH, 0.5 ug/mL GR, 10 uM enzyme, 5 mM potassium phosphate, 1 mM EDTA, pH 7, 37 C; imidazole-free storage buffer.

The next experiment deals with non-His-tagged CLIC1 (Homo sapiens, UniProt O00299). The conditions noted are these: 1 mM GSH fixed, 250 uM NADPH, 0.5 ug/mL GR, 10 uM enzyme, 5 mM potassium phosphate, 1 mM EDTA, pH 7, 37 C; imidazole-free storage buffer.

T1 sequence (O95833 whole entry): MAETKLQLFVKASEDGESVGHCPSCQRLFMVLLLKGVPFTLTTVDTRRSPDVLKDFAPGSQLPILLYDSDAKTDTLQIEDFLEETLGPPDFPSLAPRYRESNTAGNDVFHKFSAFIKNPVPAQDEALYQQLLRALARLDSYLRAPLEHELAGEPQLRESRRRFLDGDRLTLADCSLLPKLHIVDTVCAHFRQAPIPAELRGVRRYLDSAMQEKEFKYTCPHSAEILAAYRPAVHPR

Usually Km stands for the substrate concentration at which the rate is half of its maximum. Regarding `OCCSSCCO` [HEDS], the Km at non-His-tagged CLIC3 came out at 994 µM; at non-His-tagged CLIC1, 2500 µM.
